According to patent US20160030407A1, “Method of Treating Inflammatory Lung Disease” (priority 2010, published 2016):
≈ marks a conversion by molar mass, not a printed value.

Assays:
nAChR α3/β4 = nAChR α3/β4 (Homo sapiens, UniProt P30926+P32297); experiment: nAChR α3/β4 channel agonist assay (FLIPR); format: cell-based; conditions: test conc 1 μM; 100% = 30 μM Ach, 0% = HBPS
Method: (§1) Briefly, cells were incubated with […] dye for 30 min at 37° C.

nAChR α4/β2 = target: T1, nAChR α4/β2 (Homo sapiens, UniProt P17787+P43681); experiment: nAChR α4/β2 channel agonist assay (FLIPR); format: cell-based; conditions: test conc 0.3 μM; 100% = 30 μM Ach, 0% = HBPS
T1 construct: host or cells: HEK293 cells, transient
Method: as §1

nAChR α7 [1] = target: T2, nAChR α7 (Homo sapiens, UniProt P36544); experiment: nAChR α7 channel agonist assay (FLIPR); format: cell-based; conditions: in presence of PNU-120596, 100% = 30 μM Ach+10 μM PNU-120596, 0% = HBPS
T2 construct: host or cells: CHO cells coexpressing RIC-3
Method: as §1
Therefore, the assay of agonist activity for either Ach or for the test articles was conducted in the presence of the positive allosteric modulator.

nAChR α7 [2] = target: T2, nAChR α7; experiment: nAChR α7 channel positive allosteric modulator assay (FLIPR); format: cell-based; conditions: with 30 μM Ach, 100% = 30 μM Ach+10 μM PNU-120596, 0% = 30 μM Ach
Method: as §1

nAChR α7 [3] = target: T2, nAChR α7; experiment: nAChR α7 channel antagonist assay (FLIPR); format: cell-based; conditions: with 300 μM Ach+10 μM PNU-120596, control antagonist 10 μM MLA
Method: as §1

IL-1β = experiment: LPS-induced IL-1β release in whole human blood; format: cell-based; conditions: whole human blood + LPS; 16 hours (Example 13)
Method: Whole human blood was treated with LPS to stimulate inflammatory responses. […] The inflammatory molecule IL-1β was measured after 16 hours.

NFκB = NFκB luciferase assay (inhibition of TNFα-induced NFκB activity); format: cell-based, Human; conditions: Homo sapiens; 20 ng/ml TNFα; HEK293 NFκB luciferase
Method: The smokeless tobacco used in these experiments was plain long-leaf Copenhagen tobacco purchased from a local vendor. Crude extract was extracted with methanol and water and clarified by centrifugation and filtration. The alkaloid extract was prepared from sodium hydroxide and methanol extraction, organic phase separation and purification. All treatment samples were prepared as a function of weight (μg/ml), and all samples were diluted in DMSO.
Human […] kidney cells (HEK293) transfected with an NFκB luciferase reporter were challenged with TNFα for three hours, then samples were applied to the challenged cells.
The effect of S-(−)-anatabine on TNFα-induced NFκB activity in vitro was determined as described in Example 1.

[4] = Treatment of a patient with Hashimoto's thyroiditis; format: in vivo, human; conditions: one patient
Text: This example illustrates administering anatabine for treating thyroiditis. A patient had been afflicted with Hashimoto's thyroiditis for approximately 5 years. The patient's condition had advanced to a state where the treating physician recommended a thyroid lobectomy.

[5] = Plasma pharmacokinetics after oral multi-dose anatabine polacrilex; format: in vivo, Sprague-Dawley rats; conditions: for t1/2, terminal / AUC0→∞: rat; for t1/2, terminal: after the final dose; for AUC0→∞: males and females combined
Method: This study consisted of two groups of 8 animals each, 4 males and 4 females.
The vehicle was sterile phosphate buffered saline (PBS) (Amresco). […] Two formulations were prepared; one for each of the two treatment groups. The test compound was formulated for each treatment group just prior to the first dose administration and constantly stirred until dosing was completed (Table 37). Four aliquots of each dose level formulation were collected and stored at −80° C.
The animals were weighed prior to dosing and received three doses p.o. of test compound at a volume of 5 mL/kg. Blood was collected via the venus plexus (retro-orbital) into tubes containing (K2) EDTA. No more than 0.5 mL was collected per time point.
Sample preparation. Plasma samples were treated with three volumes of methanol containing internal standard at 1 μM (R,S)-Antabine-2,4,5,6-d4), incubated 10 min at 4° C., and centrifuged. The amount of the test agent in the supernatant was determined by LC/MS/MS.
Analysis. Samples were analyzed by LC/MS/MS using an Agilent 6410 mass spectrometer coupled with an Agilent 1200 high pressure liquid chromatography (HPLC) and a CTC PAL chilled autosampler, all controlled by MassHunter software (Agilent). After separation on a Hydrophilic interaction liquid chromatography (HILIC) HPLC column (Sepax) using an acetonitrile-ammonium acetate/acetic acid gradient system, peaks were analyzed by mass spectrometry (MS) using ESI ionization in multiple reaction monitoring (MRM) mode. MassHunter software was used to calculate the concentration of the test compounds in samples from the peak area using the appropriate calibration curves.
Descriptive statistics were calculated for all pharmacokinetic parameters. Elimination half-lives (t1/2) were calculated by linear regression of logarithmically transformed plasma concentration data for each period between doses and following the final dose.
Total areas under the plasma concentration curves (AUC) and under the first moment curves (AUMC) were calculated using linear trapezoidal summation across all concentration time points as well as for intervals between each dose administration and following the final dose. […] Mean absorption times (MAT) were calculated according to the following relation: […]

[6] = Physical signs after oral multi-dose administration (Example 5); format: in vivo, Sprague-Dawley rats; conditions: rat; oral gavage 0.6 or 6.0 mg/kg BW in three divided doses
Text: The physical signs of each animal were monitored following administration of the test compound.

T2 sequence (P36544 23-502): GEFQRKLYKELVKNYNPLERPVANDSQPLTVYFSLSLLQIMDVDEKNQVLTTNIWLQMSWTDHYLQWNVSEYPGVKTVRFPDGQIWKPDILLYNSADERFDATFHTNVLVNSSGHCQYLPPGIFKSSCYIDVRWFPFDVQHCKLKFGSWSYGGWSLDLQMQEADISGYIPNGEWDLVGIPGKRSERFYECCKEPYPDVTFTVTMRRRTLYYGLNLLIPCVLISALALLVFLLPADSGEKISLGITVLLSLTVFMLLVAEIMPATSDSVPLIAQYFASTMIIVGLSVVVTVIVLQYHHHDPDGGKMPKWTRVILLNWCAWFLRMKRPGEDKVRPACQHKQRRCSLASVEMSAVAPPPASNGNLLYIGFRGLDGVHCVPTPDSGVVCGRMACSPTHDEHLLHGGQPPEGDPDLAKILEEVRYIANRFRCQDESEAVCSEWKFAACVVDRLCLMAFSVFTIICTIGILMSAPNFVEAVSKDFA
Chain of nAChR α3/β4 (P32297 32-505): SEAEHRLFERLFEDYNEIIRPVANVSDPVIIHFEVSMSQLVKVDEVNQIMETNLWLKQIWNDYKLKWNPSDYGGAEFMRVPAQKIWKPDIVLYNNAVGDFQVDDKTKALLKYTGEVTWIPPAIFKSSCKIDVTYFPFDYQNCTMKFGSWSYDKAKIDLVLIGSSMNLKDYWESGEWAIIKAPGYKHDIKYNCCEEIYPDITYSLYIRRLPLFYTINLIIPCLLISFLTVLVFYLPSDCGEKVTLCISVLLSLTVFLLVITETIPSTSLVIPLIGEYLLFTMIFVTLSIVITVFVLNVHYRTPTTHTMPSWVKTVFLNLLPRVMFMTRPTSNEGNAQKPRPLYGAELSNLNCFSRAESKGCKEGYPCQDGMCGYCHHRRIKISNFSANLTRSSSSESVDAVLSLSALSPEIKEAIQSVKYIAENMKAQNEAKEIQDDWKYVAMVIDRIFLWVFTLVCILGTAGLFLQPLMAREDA
Chain of nAChR α3/β4 (P30926 22-498): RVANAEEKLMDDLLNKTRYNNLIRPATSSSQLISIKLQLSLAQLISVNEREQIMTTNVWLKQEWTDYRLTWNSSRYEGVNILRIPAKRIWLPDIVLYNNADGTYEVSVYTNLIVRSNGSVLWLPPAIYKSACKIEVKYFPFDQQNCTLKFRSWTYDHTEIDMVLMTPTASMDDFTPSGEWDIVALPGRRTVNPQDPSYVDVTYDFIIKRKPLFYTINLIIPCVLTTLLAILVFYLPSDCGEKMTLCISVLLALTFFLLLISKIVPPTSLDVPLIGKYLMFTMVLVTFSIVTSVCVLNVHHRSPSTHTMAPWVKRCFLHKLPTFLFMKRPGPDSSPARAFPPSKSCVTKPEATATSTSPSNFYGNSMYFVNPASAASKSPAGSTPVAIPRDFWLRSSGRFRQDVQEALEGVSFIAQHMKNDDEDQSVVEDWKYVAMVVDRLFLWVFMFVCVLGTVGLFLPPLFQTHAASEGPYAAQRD
T1 sequence (P43681 29-627): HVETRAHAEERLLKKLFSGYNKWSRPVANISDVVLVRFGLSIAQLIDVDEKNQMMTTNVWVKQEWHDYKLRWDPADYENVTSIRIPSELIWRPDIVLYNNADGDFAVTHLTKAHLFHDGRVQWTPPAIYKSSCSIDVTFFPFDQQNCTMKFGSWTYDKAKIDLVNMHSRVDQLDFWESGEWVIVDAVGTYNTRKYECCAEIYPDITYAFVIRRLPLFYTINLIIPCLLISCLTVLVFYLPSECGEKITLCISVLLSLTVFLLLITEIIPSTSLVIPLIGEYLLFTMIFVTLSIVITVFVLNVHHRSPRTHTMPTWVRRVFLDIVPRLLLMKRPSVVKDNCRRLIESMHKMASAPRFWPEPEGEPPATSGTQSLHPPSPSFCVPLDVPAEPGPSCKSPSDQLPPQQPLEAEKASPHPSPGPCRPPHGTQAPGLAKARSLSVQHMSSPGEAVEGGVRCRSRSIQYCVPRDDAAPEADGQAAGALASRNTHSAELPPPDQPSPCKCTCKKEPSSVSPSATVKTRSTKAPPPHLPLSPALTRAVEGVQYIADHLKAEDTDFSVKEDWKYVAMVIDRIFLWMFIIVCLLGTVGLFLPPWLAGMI
T1 sequence (P17787 26-502): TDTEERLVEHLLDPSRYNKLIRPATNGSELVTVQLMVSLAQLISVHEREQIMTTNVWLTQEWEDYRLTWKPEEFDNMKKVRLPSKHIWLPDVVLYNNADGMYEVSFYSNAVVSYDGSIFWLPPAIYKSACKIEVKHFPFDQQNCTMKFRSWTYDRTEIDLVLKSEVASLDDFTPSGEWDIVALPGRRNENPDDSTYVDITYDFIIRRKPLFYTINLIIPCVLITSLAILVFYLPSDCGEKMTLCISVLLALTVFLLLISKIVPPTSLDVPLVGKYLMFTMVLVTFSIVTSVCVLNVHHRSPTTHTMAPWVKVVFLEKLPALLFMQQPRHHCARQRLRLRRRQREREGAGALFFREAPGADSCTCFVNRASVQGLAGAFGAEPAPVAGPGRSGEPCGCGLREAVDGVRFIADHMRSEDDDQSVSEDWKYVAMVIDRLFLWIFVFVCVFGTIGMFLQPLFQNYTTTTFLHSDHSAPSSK

C1=CCC(c2cccnc2)NC1 (racemic) [Anatabine (racemate)]
Normalized % Activation (nAChR α3/β4): −0.01%
Normalized % Activation (nAChR α4/β2): 0.28%
Normalized % Activation (nAChR α7 [1]; test conc 1 μm): 0.34%
Normalized % Activation (nAChR α7 [1]; test conc 3 μm): 0.78%
Normalized % Potentiation (nAChR α7 [2]; test conc 0.3 μm): −0.94%
Normalized % Potentiation (nAChR α7 [2]; test conc 3 μm): −0.82%
Normalized % Potentiation (nAChR α7 [2]; test conc 10 μm): −0.51%
Normalized % Potentiation (nAChR α7 [2]; test conc 30 μm): −0.57%
Normalized % Potentiation (nAChR α7 [2]; test conc 100 μm): −0.64%
Normalized % Potentiation (nAChR α7 [2]; test conc 300 μm): −0.74%
Normalized % Inhibition (nAChR α7 [3]; test conc 0.3 μm): 22.38%
Normalized % Inhibition (nAChR α7 [3]; test conc 1 μm): 22.23%
Normalized % Inhibition (nAChR α7 [3]; test conc 3 μm): 45.19%
Normalized % Inhibition (nAChR α7 [3]; test conc 10 μm): 33.42%
Normalized % Inhibition (nAChR α7 [3]; test conc 30 μm): 22.88%
Normalized % Inhibition (nAChR α7 [3]; test conc 100 μm): 21.99%
Normalized % Inhibition (nAChR α7 [3]; test conc 300 μm): 7.51%
Normalized % Inhibition (nAChR α7 [3]; test conc 1000 μm): 10.84%

CC(C)c1c(C(=O)Nc2ccccc2)c(-c2ccccc2)c(-c2ccc(F)cc2)n1CC[C@@H](O)C[C@@H](O)CC(=O)[O-].CC(C)c1c(C(=O)Nc2ccccc2)c(-c2ccccc2)c(-c2ccc(F)cc2)n1CC[C@@H](O)C[C@@H](O)CC(=O)[O-].[Ca+2] [LIPITOR®, reference compound]
accumulation of IL-1β (IL-1β): had no effect at the dose shown

C1=CC[C@@H](c2cccnc2)NC1 [S-(−)-anatabine]
IC50 (NFκB): ~330 µg/mL (≈ 2060 µM)

anatabine citrate
inflammation of the thyroid ([4]; about 600 μg tablets 20 times daily, 30 days): reduced to normal levels
voice distortion associated with thyroiditis ([4]; after an additional 30 days): no longer present

anatabine polacrilex
Cp, min(2) ([5]; females, 6.0 mg/kg BW group): 180 ± 31 ng/mL
Cp, min, first minimum ([5]; females, 6.0 mg/kg BW group): 51.5 ± 26.0 ng/mL
t1/2, terminal ([5]; 0.6 mg/kg BW group): 1.79 ± 0.64 h
AUC0→∞ ([5]; 0.6 mg/kg BW p.o. in three divided doses): 285 ± 77 ng·h/mL
t1/2, terminal ([5]; 6.0 mg/kg BW group): 4.53 ± 1.77 h
AUC0→∞ ([5]; 6.0 mg/kg BW p.o. in three divided doses): 3496 ± 559 ng·h/mL
adverse signs [6]: no adverse signs were observed
